From PMC5218480 (PLoS ONE, 2017) come the findings set out here.

The experiment concerns MV-4-11 cells. As to the kind of experiment: Gene expression microarray analysis (Affymetrix PrimeView) and GSEA. The class given is cell-based, human. Also noted: RFU PODN (11730768_x_at) / Fold change /veh PODN (11730768_x_at) / RFU LINC00158 (11744669_a_at) / Fold change /veh LINC00158 (11744669_a_at) / RFU DUSP10 (11751237_a_at) / Fold change /veh DUSP10 (11751237_a_at) / RFU ID3 (11757404_x_at) / Fold change /veh ID3 (11757404_x_at) / RFU PLEKHG5 (11737974_s_at) / Fold change /veh PLEKHG5 (11737974_s_at) / RFU LRRC4B (11730491_at) / Fold change /veh LRRC4B (11730491_at) / RFU GIMAP4 (11747438_a_at) / Fold change /veh GIMAP4 (11747438_a_at) / RFU KRT8 (11758183_x_at) / Fold change /veh KRT8 (11758183_x_at) / RFU CNN1 (11734310_a_at) / Fold change /veh CNN1 (11734310_a_at) / RFU VPS37D (11726825_at) / Fold change /veh VPS37D (11726825_at) / RFU C10orf10 (11716522_x_at) / Fold change /veh C10orf10 (11716522_x_at) / RFU KIR2DL2 /// KIR2DL4 /// KIR2DL5A /// KIR2DL5B /// KIR2DS1 /// KIR2DS2 /// KIR2DS3 /// KIR2DS4 /// KIR3DL3 /// KIR3DL3 /// KIR3DS1 (11738374_at) / Fold change /veh KIR2DL2 /// KIR2DL4 /// KIR2DL5A /// KIR2DL5B /// KIR2DS1 /// KIR2DS2 /// KIR2DS3 /// KIR2DS4 /// KIR3DL3 /// KIR3DL3 /// KIR3DS1 (11738374_at) / RFU C1QL1 (11718748_at) / Fold change /veh C1QL1 (11718748_at) / RFU TMPRSS4 (11747572_a_at) / Fold change /veh TMPRSS4 (11747572_a_at) / RFU HAMP (11756126_x_at) / Fold change /veh HAMP (11756126_x_at) / RFU RNFT2 (11725882_a_at) / Fold change /veh RNFT2 (11725882_a_at) / RFU NR4A2 (11747474_a_at) / Fold change /veh NR4A2 (11747474_a_at) / RFU ABCC12 (11746883_a_at) / Fold change /veh ABCC12 (11746883_a_at) / RFU TMEM136 (11760407_x_at) / Fold change /veh TMEM136 (11760407_x_at) / RFU CLDN22 /// WWC2 (11732394_at) / Fold change /veh CLDN22 /// WWC2 (11732394_at) / RFU HLA-DPB1 (11760878_x_at) / Fold change /veh HLA-DPB1 (11760878_x_at) / RFU SPINT1 (11716480_a_at) / Fold change /veh SPINT1 (11716480_a_at) / RFU GAP43 (11754022_s_at) / Fold change /veh GAP43 (11754022_s_at) / RFU A4GNT (11735810_at) / Fold change /veh A4GNT (11735810_at) / RFU PRB3 (11715151_x_at) / Fold change /veh PRB3 (11715151_x_at) / RFU TUBB4B (11761932_at) / Fold change /veh TUBB4B (11761932_at) / RFU CAPN14 (11732068_a_at) / Fold change /veh CAPN14 (11732068_a_at) / RFU TMCC2 (11721928_a_at) / Fold change /veh TMCC2 (11721928_a_at) / RFU IRGQ (11745062_a_at) / Fold change /veh IRGQ (11745062_a_at) / RFU FAM174B (11720279_a_at) / Fold change /veh FAM174B (11720279_a_at) / RFU TMPRSS4 (11748680_a_at) / Fold change /veh TMPRSS4 (11748680_a_at) / RFU FAM212B (11763350_a_at) / Fold change /veh FAM212B (11763350_a_at) / RFU PLEKHG5 (11743358_a_at) / Fold change /veh PLEKHG5 (11743358_a_at) / RFU ZSCAN30 (11745921_a_at) / Fold change /veh ZSCAN30 (11745921_a_at) / RFU CMKLR1 (11741424_a_at) / Fold change /veh CMKLR1 (11741424_a_at) / RFU LOC101060620 /// MAPK8IP1 (11723275_at) / Fold change /veh LOC101060620 /// MAPK8IP1 (11723275_at) / RFU SPTSSB (11747773_x_at) / Fold change /veh SPTSSB (11747773_x_at) / RFU PRSS12 (11739890_at) / Fold change /veh PRSS12 (11739890_at) / RFU BIN1 (11741810_x_at) / Fold change /veh BIN1 (11741810_x_at) / RFU WNT11 (11732464_a_at) / Fold change /veh WNT11 (11732464_a_at) / RFU C10orf10 (11716521_a_at) / Fold change /veh C10orf10 (11716521_a_at) / RFU C5orf56 (11738089_at) / Fold change /veh C5orf56 (11738089_at) / RFU CYB561 (11721691_x_at) / Fold change /veh CYB561 (11721691_x_at) / RFU ANKRD19P (11752326_a_at) / Fold change /veh ANKRD19P (11752326_a_at) / RFU OR2T12 /// OR2T33 /// OR2T8 (11738714_s_at) / Fold change /veh OR2T12 /// OR2T33 /// OR2T8 (11738714_s_at) / RFU VCAN (11748164_a_at) / Fold change /veh VCAN (11748164_a_at) / RFU JSRP1 (11732532_at) / Fold change /veh JSRP1 (11732532_at) / RFU KRTAP10-11 (11738290_x_at) / Fold change /veh KRTAP10-11 (11738290_x_at) / RFU MYO3A (11730013_a_at) / Fold change /veh MYO3A (11730013_a_at) / RFU EBF3 (11725865_a_at) / Fold change /veh EBF3 (11725865_a_at) / RFU CAMK2N1 (11719241_x_at) / Fold change /veh CAMK2N1 (11719241_x_at) / RFU C5orf56 (11738088_a_at) / Fold change /veh C5orf56 (11738088_a_at) / RFU OLFML3 (11715873_a_at) / Fold change /veh OLFML3 (11715873_a_at) / RFU LOC100653217 /// NTM (11731650_a_at) / Fold change /veh LOC100653217 /// NTM (11731650_a_at) / RFU MAPK11 (11762145_a_at) / Fold change /veh MAPK11 (11762145_a_at) / RFU FIZ1 (11724087_x_at) / Fold change /veh FIZ1 (11724087_x_at) / RFU OASL (11726364_x_at) / Fold change /veh OASL (11726364_x_at) / RFU SOX15 (11748057_x_at) / Fold change /veh SOX15 (11748057_x_at) / RFU CD79A (11719716_a_at) / Fold change /veh CD79A (11719716_a_at) / RFU HIST1H1D (11736915_at) / Fold change /veh HIST1H1D (11736915_at) / RFU CASKIN2 (11723855_a_at) / Fold change /veh CASKIN2 (11723855_a_at) / RFU LOC730098 (11760151_x_at) / Fold change /veh LOC730098 (11760151_x_at) / RFU OR4N2 (11742367_at) / Fold change /veh OR4N2 (11742367_at) / RFU PRRT2 (11749266_a_at) / Fold change /veh PRRT2 (11749266_a_at) / RFU SNX32 (11753110_a_at) / Fold change /veh SNX32 (11753110_a_at) / RFU CDHR5 (11726645_a_at) / Fold change /veh CDHR5 (11726645_a_at) / RFU RCAN1 (11760418_a_at) / Fold change /veh RCAN1 (11760418_a_at) / RFU FAM167A (11723789_a_at) / Fold change /veh FAM167A (11723789_a_at) / RFU FAM26E (11764081_at) / Fold change /veh FAM26E (11764081_at) / RFU ISYNA1 (11749810_s_at) / Fold change /veh ISYNA1 (11749810_s_at) / RFU ACY1 (11761880_at) / Fold change /veh ACY1 (11761880_at) / RFU 11764098_at / Fold change /veh 11764098_at / RFU SAMD14 (11745864_x_at) / Fold change /veh SAMD14 (11745864_x_at) / RFU NPB (11741838_a_at) / Fold change /veh NPB (11741838_a_at) / RFU TMPRSS6 (11731388_a_at) / Fold change /veh TMPRSS6 (11731388_a_at) / RFU KRTAP10-2 (11738614_at) / Fold change /veh KRTAP10-2 (11738614_at) / RFU ARHGAP8 /// PRR5-ARHGAP8 (11727945_x_at) / Fold change /veh ARHGAP8 /// PRR5-ARHGAP8 (11727945_x_at) / RFU KRTAP5-7 /// NADSYN1 (11734609_at) / Fold change /veh KRTAP5-7 /// NADSYN1 (11734609_at) / RFU RASL12 (11751679_a_at) / Fold change /veh RASL12 (11751679_a_at) / RFU CDKN2B (11736163_a_at) / Fold change /veh CDKN2B (11736163_a_at) / RFU PRF1 (11729649_at) / Fold change /veh PRF1 (11729649_at) / RFU, ZNF638 /// ZNF638-IT1 / Fold change vs veh, ZNF638 /// ZNF638-IT1 / RFU, PANK3 / Fold change vs veh, PANK3 / RFU, SH3YL1 / Fold change vs veh, SH3YL1 / RFU, ZEB2 / Fold change vs veh, ZEB2 / RFU, NRIP1 / Fold change vs veh, NRIP1 / RFU, PTTG1IP / Fold change vs veh, PTTG1IP / RFU, CAPN2 / Fold change vs veh, CAPN2 / RFU, MED14 / Fold change vs veh, MED14 / RFU, SNORA58 / Fold change vs veh, SNORA58 / RFU, C1orf63 / Fold change vs veh, C1orf63 / RFU, LRRFIP1 / Fold change vs veh, LRRFIP1 / RFU, NDUFAF7 / Fold change vs veh, NDUFAF7 / RFU, SLC12A2 / Fold change vs veh, SLC12A2 / RFU, IBTK / Fold change vs veh, IBTK / RFU, ESF1 / Fold change vs veh, ESF1 / Fold change vs veh, TMEM50B / RFU, TAOK1 / Fold change vs veh, TAOK1 / RFU, ACBD3 / Fold change vs veh, ACBD3 / RFU, TMA16 / Fold change vs veh, TMA16 / RFU, RWDD3 / Fold change vs veh, RWDD3 / RFU, BCAT1 / Fold change vs veh, BCAT1 / RFU, EDEM3 / Fold change vs veh, EDEM3 / RFU, TMEM33 / Fold change vs veh, TMEM33 / RFU, WDR75 / Fold change vs veh, WDR75 / RFU, AHCTF1 / Fold change vs veh, AHCTF1 / RFU, TFRC / Fold change vs veh, TFRC / RFU, ZDHHC17 / Fold change vs veh, ZDHHC17 / RFU, NOM1 / Fold change vs veh, NOM1 / RFU, ARL8B / Fold change vs veh, ARL8B / RFU, ZBTB11 / Fold change vs veh, ZBTB11 / RFU, TAMM41 / Fold change vs veh, TAMM41 / RFU, KIAA1704 /// LOC100996395 / Fold change vs veh, KIAA1704 /// LOC100996395 / RFU, ING1 / Fold change vs veh, ING1 / RFU, TRMT61B / Fold change vs veh, TRMT61B / RFU, FUBP3 / Fold change vs veh, FUBP3 / RFU, TP53 / Fold change vs veh, TP53 / RFU, TNKS2 / Fold change vs veh, TNKS2 / RFU, ZFP14 / Fold change vs veh, ZFP14 / RFU, ACTR2 / Fold change vs veh, ACTR2 / RFU, PPP3R1 / Fold change vs veh, PPP3R1 / RFU, PIK3R1 / Fold change vs veh, PIK3R1 / RFU, HNRNPA1 / Fold change vs veh, HNRNPA1 / RFU, RNF170 / Fold change vs veh, RNF170 / RFU, ZNF28 / Fold change vs veh, ZNF28 / RFU, RNGTT / Fold change vs veh, RNGTT / RFU, OGT / Fold change vs veh, OGT / RFU, BRD1 / Fold change vs veh, BRD1 / RFU, MARS / Fold change vs veh, MARS / RFU, ZNF655 / Fold change vs veh, ZNF655 / RFU, FAHD1 / Fold change vs veh, FAHD1 / RFU, BDP1 / Fold change vs veh, BDP1 / RFU, LRRCC1 / Fold change vs veh, LRRCC1 / RFU, ARID1A / Fold change vs veh, ARID1A / RFU, ZNF146 / Fold change vs veh, ZNF146 / RFU, ZNF330 / Fold change vs veh, ZNF330 / RFU, GPN3 / Fold change vs veh, GPN3 / RFU, C9orf123 / Fold change vs veh, C9orf123 / RFU, N4BP2L2 / Fold change vs veh, N4BP2L2 / RFU, ARFIP1 / Fold change vs veh, ARFIP1 / RFU, FAM179B / Fold change vs veh, FAM179B / RFU, BCL10 / Fold change vs veh, BCL10 / RFU, UHRF1BP1L / Fold change vs veh, UHRF1BP1L / RFU, BET1 / Fold change vs veh, BET1 / RFU, CNOT2 / Fold change vs veh, CNOT2 / RFU, ZNF268 / Fold change vs veh, ZNF268 / Fold change vs veh, ZNF507 / RFU, DGCR2 / Fold change vs veh, DGCR2 / RFU, WDSUB1 / Fold change vs veh, WDSUB1 / Fold change vs veh, HSP90B1 /// MIR3652 / RFU, ADSS / Fold change vs veh, ADSS / RFU, GK / Fold change vs veh, GK / RFU, ZNF148 / Fold change vs veh, ZNF148 / RFU, TAF9 / Fold change vs veh, TAF9 / RFU, SLC1A5 / Fold change vs veh, SLC1A5 / RFU, SLMO2 / Fold change vs veh, SLMO2 / RFU, ABCC4 / Fold change vs veh, ABCC4 / RFU, LOC101060439 /// RAP1B / Fold change vs veh, LOC101060439 /// RAP1B / RFU, RFX7 / Fold change vs veh, RFX7 / RFU, GTPBP10 / Fold change vs veh, GTPBP10 / RFU, CNEP1R1 / Fold change vs veh, CNEP1R1 / RFU, BIVM-ERCC5 /// ERCC5 / Fold change vs veh, BIVM-ERCC5 /// ERCC5 / RFU, ILF3 / Fold change vs veh, ILF3 / RFU 11762660_at / Fold change /veh 11762660_at / RFU VCAN (11757783_s_at) / Fold change /veh VCAN (11757783_s_at) / RFU DDX43 (11728927_at) / Fold change /veh DDX43 (11728927_at) / RFU KRT8 (11758188_x_at) / Fold change /veh KRT8 (11758188_x_at) / RFU NKD1 (11759106_at) / Fold change /veh NKD1 (11759106_at) / RFU SRD5A1 (11742802_a_at) / Fold change /veh SRD5A1 (11742802_a_at) / RFU TPSAB1 /// TPSB2 (11721975_s_at) / Fold change /veh TPSAB1 /// TPSB2 (11721975_s_at) / RFU GSTM3 (11746129_a_at) / Fold change /veh GSTM3 (11746129_a_at) / RFU IL23R (11737362_x_at) / Fold change /veh IL23R (11737362_x_at) / RFU TMEM51 (11727254_a_at) / Fold change /veh TMEM51 (11727254_a_at) / RFU PIWIL2 (11732686_x_at) / Fold change /veh PIWIL2 (11732686_x_at) / RFU ORM1 (11744905_x_at) / Fold change /veh ORM1 (11744905_x_at) / RFU CCDC152 (11743942_at) / Fold change /veh CCDC152 (11743942_at) / RFU ECM1 (11717891_a_at) / Fold change /veh ECM1 (11717891_a_at) / RFU IL23R (11748794_a_at) / Fold change /veh IL23R (11748794_a_at) / RFU TNFAIP8L3 (11732012_x_at) / Fold change /veh TNFAIP8L3 (11732012_x_at) / RFU MBOAT4 (11741988_at) / Fold change /veh MBOAT4 (11741988_at) / RFU 11764193_at / Fold change /veh 11764193_at / RFU TMEM53 (11763286_at) / Fold change /veh TMEM53 (11763286_at) / RFU MAGEB2 (11727129_at) / Fold change /veh MAGEB2 (11727129_at) / RFU TMEM200A (11744735_a_at) / Fold change /veh TMEM200A (11744735_a_at) / RFU CCDC152 (11751479_a_at) / Fold change /veh CCDC152 (11751479_a_at) / RFU FAM211A (11726209_a_at) / Fold change /veh FAM211A (11726209_a_at) / RFU RGS16 (11746705_a_at) / Fold change /veh RGS16 (11746705_a_at) / RFU VCAN (11755009_s_at) / Fold change /veh VCAN (11755009_s_at) / RFU RHOB (11743442_s_at) / Fold change /veh RHOB (11743442_s_at) / RFU RGS16 (11720943_a_at) / Fold change /veh RGS16 (11720943_a_at) / RFU RGS16 (11720944_at) / Fold change /veh RGS16 (11720944_at) / RFU, VPS4B / Fold change vs veh, VPS4B / RFU, CREB1 / Fold change vs veh, CREB1 / RFU, DNAJC13 / Fold change vs veh, DNAJC13 / RFU, GNAQ / Fold change vs veh, GNAQ / RFU, CDK5R1 / Fold change vs veh, CDK5R1 / RFU, ZRANB3 / Fold change vs veh, ZRANB3 / RFU, CUL4A / Fold change vs veh, CUL4A / RFU, CCNY / Fold change vs veh, CCNY / RFU, UFL1 / Fold change vs veh, UFL1 / RFU, COG3 / Fold change vs veh, COG3 / RFU, DIAPH2 / Fold change vs veh, DIAPH2 / RFU, SKA2 / Fold change vs veh, SKA2 / RFU, AFF3 / Fold change vs veh, AFF3 / RFU, LMF1 / Fold change vs veh, LMF1 / RFU, IPO11 / Fold change vs veh, IPO11 / RFU, DFFB / Fold change vs veh, DFFB / RFU, FOXP1 / Fold change vs veh, FOXP1 / RFU, CARD8 / Fold change vs veh, CARD8 / RFU, STRN3 / Fold change vs veh, STRN3 / RFU, ADK / Fold change vs veh, ADK / RFU, RASSF2 / Fold change vs veh, RASSF2 / RFU, WIPF1 / Fold change vs veh, WIPF1 / RFU, LARP1B / Fold change vs veh, LARP1B / RFU, RASA1 / Fold change vs veh, RASA1 / RFU, RB1 / Fold change vs veh, RB1 / RFU, PPFIA1 / Fold change vs veh, PPFIA1 / RFU, MAT2A / Fold change vs veh, MAT2A / RFU, CCT5 / Fold change vs veh, CCT5 / RFU, WDR92 / Fold change vs veh, WDR92 / RFU, CUX1 / Fold change vs veh, CUX1 / RFU, TTC7A / Fold change vs veh, TTC7A / RFU, TMEM135 / Fold change vs veh, TMEM135 / RFU, DEPTOR / Fold change vs veh, DEPTOR / RFU, CPM / Fold change vs veh, CPM / RFU, DNAJB6 / Fold change vs veh, DNAJB6 / RFU, CACNA2D3 / Fold change vs veh, CACNA2D3 / RFU, DTX4 / Fold change vs veh, DTX4 / RFU, TFCP2 / Fold change vs veh, TFCP2 / RFU, GMCL1 /// GMCL1P1 / Fold change vs veh, GMCL1 /// GMCL1P1 / RFU, AEBP2 / Fold change vs veh, AEBP2 / RFU, SNHG1 /// SNORD22 /// SNORD25 /// SNORD26 /// SNORD27 /// SNORD28 /// SNORD29 /// SNORD31 / Fold change vs veh, SNHG1 /// SNORD22 /// SNORD25 /// SNORD26 /// SNORD27 /// SNORD28 /// SNORD29 /// SNORD31 / Fold change (Aza/veh), C12orf56 (ProbeSet 11735607_a_at) / Fold change (ACY-1035/veh), C12orf56 (ProbeSet 11735607_a_at) / Fold change (Aza/veh), FGFR1OP (ProbeSet 11751329_s_at) / Fold change (ACY-1035/veh), FGFR1OP (ProbeSet 11751329_s_at) / Fold change (Aza/veh), VPS36 (ProbeSet 11739960_a_at) / Fold change (ACY-1035/veh), VPS36 (ProbeSet 11739960_a_at) / RFU SYPL1 (11715823_x_at) / Fold change /veh SYPL1 (11715823_x_at) / RFU IGFBP7 (11715501_s_at) / Fold change /veh IGFBP7 (11715501_s_at) / RFU REEP3 (11722064_at) / Fold change /veh REEP3 (11722064_at) / RFU IGLL1 (11728026_x_at) / Fold change /veh IGLL1 (11728026_x_at): dose or concentration left out as unconfirmed. Particulars: MV-4-11 cells, 48 hours.

Each structure is given as a SMILES string.

For the compound `Nc1ncn([C@@H]2O[C@H](CO)[C@@H](O)[C@H]2O)c(=O)n1` [azacitidine], the “Fold change /veh GSTM3 (11746129_a_at)” value is given as 1.35.
